Experimental data: US20080194630A1, “LTA4H modulators and uses thereof” (priority 2007, published 2008)

Key:
[1] = tested on: ionophore-induced LTB4 production; details: oral administration; cited from earlier work
[2] = tested on: ionophore-induced LTB4 production; details: oral administration; cited from earlier work; remark: listed apart in the source
[3] = tested on: ex vivo stimulated LTB4 production; experiment: Murine arachidonic acid-induced inflammation model: ex vivo stimulated LTB4 production in blood; set-up: species or system female Balb/c mice; details: 30 mg/kg oral gavage, blood taken 3 h after arachidonic acid, ex vivo A23187 stimulation, vs animals without inhibitor
Protocol: Murine arachidonic acid-induced inflammation model
LTA4H inhibitor compounds of the present invention were dissolved in 20% cyclodextran/H2O at a concentration of 3 mg/mL. The solutions were administered by oral gavage to female Balb/c mice weighing approximately 20 grams each (0.2 mL per mouse, 30 mg of LTA4H inhibitor compound per kg). Sixty minutes after being administered an LTA4 inhibitor, each mouse received topical application of 20 μL of arachidonic acid (100 mg/mL in acetone) to the left ear and 20 μL of acetone only to the right ear. After 3 h, the mice were sacrificed, blood was withdrawn in heparinized syringes, and 8 mm ear biopsies were taken. […]
One hundred-microliter aliquots of heparinized blood were added to wells of a microtiter plate, along with equal volumes of RPMI-1640 medium, and calcium ionophore A23187 was added to each sample well (final concentration=20 ng/μL). […] Supernatants were analyzed for LTB4 by a commercially available enzyme-linked immunoassay (Cayman Chemical Co.) in accordance with the manufacturer's instructions. The percent inhibition of ex vivo stimulated LTB4 production (% Inh. LTB4) was determined by comparison to animals treated identically except that the solution admininstered by oral gavage was devoid of inhibitor compound.

[4] = tested on: neutrophil influx (myeloperoxidase, MPO); experiment: Murine arachidonic acid-induced inflammation model: neutrophil influx in ear (myeloperoxidase activity); assay type: in vivo, female Balb/c mice; details: Mus musculus, 30 mg/kg oral gavage 60 min before topical arachidonic acid, ear biopsy after 3 h, vs animals without inhibitor
Protocol: Murine arachidonic acid-induced inflammation model LTA4H inhibitor compounds of the present invention were dissolved in 20% cyclodextran/H2O at a concentration of 3 mg/mL. The solutions were administered by oral gavage to female Balb/c mice weighing approximately 20 grams each (0.2 mL per mouse, 30 mg of LTA4H inhibitor compound per kg). Sixty minutes after being administered an LTA4 inhibitor, each mouse received topical application of 20 μL of arachidonic acid (100 mg/mL in acetone) to the left ear and 20 μL of acetone only to the right ear. After 3 h, the mice were sacrificed, blood was withdrawn in heparinized syringes, and 8 mm ear biopsies were taken. Ear biopsies were weighed to determine edema and then frozen at -80° C. until needed for determination of neutrophil influx. Neutrophil influx was quantified by measuring the activity of myeloperoxidase (MPO), a neutrophil-specific enzyme. […] Debris was removed by centrifugation at 14000×g for 10 min. […] The microtiter plate contents were held at room temperature for 1 h. […] H2SO4 to each sample well, and the myeloperoxidase activity in each sample was determined from the absorbance at 405 nm. […] The percent inhibition of neutrophil influx (% Inh. MPO) by compounds of the invention was determined by comparison to animals treated identically, except that the solution administered by oral gavage was devoid of inhibitor compound.

[5] = tested on: LTB4 production in murine whole blood (LTA4H); experiment: LTB4 production by calcium ionophore-stimulated murine blood for LTA4H inhibitor activity; assay type: cell-based, CD-1 mice; details: CD-1 mouse blood diluted 1:15, calcium ionophore A23187 20 ng/mL, LTB4 by enzyme-linked immunoassay
pruritus = details: human, in vivo; cited from earlier work
atopic dermatitis = details: small open-label trial in AD; cited from earlier work

CN(CCCOc1ccc(Cc2ccccc2)cc1)CCC(=O)O.Cl [SC57461]
ionophore-induced LTB4 production in rat peritoneum in vivo [1]: caused inhibition | ionophore-induced LTB4 production in mouse blood ex vivo [2]: caused inhibition

O=C(O)C1CCN(Cc2ccc(Oc3nc4ccccc4s3)cc2)CC1 [Example 250, 1-[4-(Benzothiazol-2-yloxy)-benzyl]-piperidine-4-carboxylic acid]
% Inh. LTB4 [3]: 80%

CC(C)N(CCC(=O)O)CCc1ccc(Oc2nc3ccccc3s2)cc1 [Example 180, 3-({2-[4-(Benzothiazol-2-yloxy)-phenyl]-ethyl}-isopropyl-amino)-propionic acid]
inhibition at 30 mg/kg [4]: 87% | IC50 [5]: 15 nM | inhibition at 30 mg/kg ([3]; Mus musculus, read-out: % Inh. LTB4): 87%

CC(c1cc2ccccc2s1)N(O)C(N)=O (centres unmarked) [zileuton]
pruritus in Sjögren-Larsson syndrome patients (pruritus): relieving the pruritus | effects in atopic dermatitis (atopic dermatitis): beneficial effects
